Data from the supplement of paper PMC5412046.

Assays:
SB.mhdgc-1 = experiment: AC50 for growth inhibition (viability) (log10 M); higher = less potent; conditions: SB.mhdgc-1 (hereditary c.1380delA CDH1 gastric cancer)
Summary of the method: (§1)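 Values are log half-maximal activity concentrations from four-parameter fits of DMSO-normalised viability, restricted to high-quality curve classes. Patient-derived gastric cancer cells, hereditary or sporadic, were plated at 500 cells per 1536 well in 5 μL medium and given 23 nL compound in DMSO by pintool across 11 threefold dilutions, the top final concentration being 46 μM. Viability was read by ViewLux luminescence after 48 h and a 30 min CellTiter-Glo step at room temperature.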

SB.msgc-1 = experiment: as above; conditions: SB.msgc-1 (sporadic gastric cancer)
Summary of the method: as §1

Row | Structure (SMILES) | AC50 for growth inhibition (log10 M) (SB.mhdgc-1) | AC50 for growth inhibition (log10 M) (SB.msgc-1)
1 | Cc1cc(C(=O)N2CCN(c3cccc(Cl)c3)CC2)n(-c2ccccc2)n1 [XRP-44X] | -6.38 | -5.48
2 | COc1ccc(C(=O)CC2(O)C(=O)Nc3c(Cl)ccc(Cl)c32)cc1 (stereo unspecified) [YK-4-279] | -5.78 | -5.63
3 | CN(C)c1ccc2cc(C(=O)N[C@@H](CCCNC(=N)CCl)C(=O)NCc3ccccc3)ccc2c1 [YW3-56] | -4.78 | -5.03
4 | FC(F)c1nc2ccccc2n1-c1nc(N2CCOCC2)nc(N2CCOCC2)n1 [ZSTK-474] | -6.48 | -5.98
5 | CC(C(=O)O)c1ccc2c(c1)CC(=O)c1ccccc1S2 (stereo unspecified) [Zaltoprofen] | -5.43 | -5.13
6 | C\C1=C\N([C@H]2C[C@H](N=[N+]=[N-])[C@@H](CO)O2)C(=O)NC1=O [Zidovudine] | -5.03 | -4.58
7 | CC(C)N[C@@H]1CCn2c(=O)[nH]c3cccc(c32)[C@H]1O [Zilpaterol] | -5.33 | -5.63
8 | Cl.Cl.Cl.O[C@@H](COc1cccc2ncccc12)CN1CCN([C@@H]2c3ccccc3[C@@H]3[C@H](c4ccccc42)C3(F)F)CC1 [Zosuquidar trihydrochloride] | -4.93 | -5.28
9 | ClC1=CC=C2N/C3=N/C(=O)CN3CC2=C1Cl [anagrelide] | -4.73 | -4.78
10 | CC1=C(/C=C/C(C)=C/C=C/C(C)=C/C=C/C=C(C)/C=C/C=C(C)/C=C/C2=C(C)CCCC2(C)C)C(C)(C)CCC1 [beta-Carotene] | -5.13 | -4.88
11 | CC1(C)CC\C2=C(/O1)C3=C(C=CC=C3)C(=O)C2=O [beta-Lapachone] | -4.58 | -4.63
12 | CC/1=C/C(=O)N(O)/C(=C1)C2CCCCC2 [ciclopirox] | -4.73 | -5.43
13 | C[C@@H]1C[C@@H]([C@H](O)CC2CC(=O)NC(=O)C2)C(=O)[C@@H](C)C1 [cycloheximide] | -6.73 | -6.53
